In patent US9567339B2, “Primary carboxamides as BTK inhibitors” (AbbVie Inc., priority 2013, dated 2017) one finds IC50 data, which are given here for 66 compounds.

The structures appear in SMILES notation. Some results are limits rather than exact numbers.

Chain of BTK, recombinant human catalytic domain (aa 393-659) (Q06187 393-659): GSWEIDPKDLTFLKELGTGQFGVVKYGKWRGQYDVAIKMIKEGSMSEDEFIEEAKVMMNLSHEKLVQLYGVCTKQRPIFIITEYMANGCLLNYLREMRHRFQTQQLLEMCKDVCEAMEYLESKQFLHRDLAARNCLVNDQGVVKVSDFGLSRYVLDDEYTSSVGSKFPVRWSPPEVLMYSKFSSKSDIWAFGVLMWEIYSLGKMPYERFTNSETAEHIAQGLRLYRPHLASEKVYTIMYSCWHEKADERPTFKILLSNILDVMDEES

The first experiment has as its target BTK, recombinant human catalytic domain (aa 393-659) (Homo sapiens (Human), UniProt Q06187). As to the kind of experiment: In vitro BTK kinase activity measured by time-resolved fluorescence resonance energy transfer (trFRET). The experiment is classed as biochemical. The following applies: read-out: Btk IC50.
With `C=CC(=O)N1CC(N(C)c2ccc(C(N)=O)c3[nH]c(-c4ccc5c(c4)OCCC5)cc23)C1` [E.9.12], the IC50 (commonly the concentration at which inhibition is half-maximal) is less than 100 nM.
Same read-out and setting: the same measure for `Cn1cc(-c2cc3c(N4CCC[C@@H](NC(=O)c5ccc(C6CC6)cc5)C4)ccc(C(N)=O)c3[nH]2)cn1` [O.1.25*]: less than 100 nM; for `NC(=O)c1ccc(N2CCC[C@@H](NC(=O)Nc3nccs3)C2)c2cc[nH]c12` [O.1.7*]: 1000 to 10000 nM; for `C=CC(=O)N1CC(N(C)c2ccc(C(N)=O)c3[nH]c(-c4ccnn4C)cc23)C1` [E.9.16]: less than 100 nM.
Same read-out and setting: next, `C=CC(=O)N1CCOC[C@H](c2cnc(C(N)=O)c3[nH]ccc23)C1` [Example 3.2]: 100 to 1000 nM; `C=CC(=O)Nc1cc(OCc2ccccc2)cc(-c2ccc(C(N)=O)c3[nH]ccc23)c1` [E.1.14]: 1000 to 10000 nM.
Still for that read-out and setting: next, `C=CC(=O)N1CC(N(C)c2ccc(C(N)=O)c3[nH]c(-c4cn(C)nc4C)cc23)C1` [E.9.18]: less than 100 nM.
Take `C=CC(=O)N1CCOC[C@H](c2ncc(C(N)=O)c3[nH]ccc23)C1` [E.9.31]: the IC50 lay within 1000 to 10000 nM.
Same read-out and setting: next, `Cc1c(NC(=O)CCN(C)C)cccc1-c1ccc(C(N)=O)c2[nH]c(C3=CCN(S(C)(=O)=O)CC3)cc12` [D.7.23]: less than 100 nM; `C=CC(=O)Nc1cccc(-c2ccc(C(N)=O)c3[nH]ccc23)c1OC` [E.1.30]: 100 to 1000 nM; `C=CC(=O)Nc1cccc(-c2ncc(C(N)=O)c3[nH]ccc23)c1` [E.1.10]: less than 100 nM.
Same read-out and setting: the same measure for `C=CC(=O)N1CC(N(C)c2ccc(C(N)=O)c3[nH]c(-c4cnc5c(c4)COCC5)cc23)C1` [E.9.11]: less than 100 nM; for `CCC(=O)N1CC[C@@H](c2ccc(C(N)=O)c3[nH]c(C)cc23)C1` [E.10.2]: 100 to 1000 nM.
Regarding `COC1CCCC(C(=O)Nc2cccc(-c3ccc(C(N)=O)c4[nH]c(C5=CCN(S(C)(=O)=O)CC5)cc34)c2C)C1` (stereo not drawn) [D.7.34], the half-inhibitory concentration (IC50) is less than 100 nM.
On the same count and under the same terms, next, `Cc1cnc(C(=O)Nc2cccc(-c3ccc(C(N)=O)c4[nH]c(C5=CCN(S(C)(=O)=O)CC5)cc34)c2C)s1` [D.7.32]: less than 100 nM; `C=CC(=O)N1CCOC[C@@H](c2ccc(C(N)=O)c3[nH]ccc23)C1` [E.9.38]: less than 100 nM; `C=CC(=O)N1CC(N(C)c2ccc(C(N)=O)c3[nH]c(-c4ccc5c(c4)COCC5)cc23)C1` [E.9.3]: less than 100 nM.
Same read-out and setting: next, `C=CC(=O)N1CC(N(C)c2ccc(C(N)=O)c3[nH]c(-c4ccc(N5CCOCC5)nc4)cc23)C1` [E.9.10]: less than 100 nM; `Cn1cc(-c2cc3c(N4CCC[C@@H](N5Cc6ccc(F)cc6C5=O)C4)ccc(C(N)=O)c3[nH]2)cn1` [O.1.18*]: 1000 to 10000 nM; `Cc1c(NC(=O)COc2ccccn2)cccc1-c1ccc(C(N)=O)c2[nH]c(C3=CCN(S(C)(=O)=O)CC3)cc12` [D.7.24]: less than 100 nM.
Regarding `C=CC(=O)N1CC([C@H](C)c2ncc(C(N)=O)c3[nH]ccc23)C1` [E.9.29], the IC50 lay within 100 to 1000 nM.
As for `C=CC(=O)Nc1cccc(-c2ccc(C(N)=O)c3[nH]ccc23)c1C#N` [E.1.27], the IC50 lay within 100 to 1000 nM.
On the same count and under the same terms, the same measure for `CCC(=O)N1CC[C@H](c2ccc(C(N)=O)c3[nH]c(C)cc23)C1` [E.10.1]: 100 to 1000 nM.
On the same count and under the same terms, the same measure for `C=CC(=O)N1CC[C@@H](c2ccc(C(N)=O)c3[nH]c(-c4cc5n(n4)CCOC5)cc23)C1` [E.9.27]: less than 100 nM; for `C=CC(=O)NCc1ccccc1-c1ccc(C(N)=O)c2[nH]c(C3=CCN(S(C)(=O)=O)CC3)cc12` [E.1.1]: less than 100 nM; for `Cc1c(NC(=O)C2CCCCC2)cccc1-c1ccc(C(N)=O)c2[nH]c(C3=CCN(S(C)(=O)=O)CC3)cc12` [D.7.29]: less than 100 nM.
With `Cc1c(NC(=O)COc2cccnc2)cccc1-c1ccc(C(N)=O)c2[nH]c(C3=CCN(S(C)(=O)=O)CC3)cc12` [D.7.14], the IC50 was less than 100 nM.
For `Cc1c(NC(=O)CC(C)C)cccc1-c1ccc(C(N)=O)c2[nH]c(C3=CCN(S(C)(=O)=O)CC3)cc12` [D.7.35], the IC50 is less than 100 nM.
As to `CC(C)(C)c1ccc(C(=O)N[C@@H]2CCCN(c3ccc(C(N)=O)c4[nH]ccc34)C2)cc1` [O.1.11*], the IC50 is 1000 to 10000 nM.
Still for that read-out and setting: the same measure for `C=CC(=O)N1CC(N(C)c2ccc(C(N)=O)c3[nH]c(C4CC4)cc23)C1` [E.9.2]: less than 100 nM; for `C=CC(=O)N(CC(C)C)c1cccc(-c2ccc(C(N)=O)c3[nH]ccc23)c1` [E.1.35, 4-(3-(N-isobutylacrylamido)phenyl)-1H-indole-7-carboxamide]: 100 to 1000 nM.

The same experiment, now with this note: trFRET, 0.001 mM ATP, biotin-TYR1 peptide substrate; read-out: Btk IC50.
On to `C=CC(=O)N[C@H]1CC[C@H](c2ccc(C(N)=O)c3[nH]ccc23)C1` (relative stereo) [Example 11, 4-(trans-3-Acrylamidocyclopentyl)-1H-indole-7-carboxamide], for which the IC50 was less than 100 nM.
Still for that read-out and setting: the same measure for `C=CC(=O)Nc1ccc(C(N)=O)c2[nH]ccc12` [Example 5, 4-Acrylamido-1H-indole-7-carboxamide]: 1000 to 10000 nM.
Take `C=CC(=O)Nc1cccc(-c2ccc(C(N)=O)c3[nH]c(CCO)cc23)c1` [Example 23, 4-(3-Acrylamidophenyl)-2-(2-hydroxyethyl)-1H-indole-7-carboxamide]: the concentration for half-maximal inhibition (IC50) was less than 100 nM.
The same measure, in the same setting: the same measure for `C=CC(=O)Nc1cccc(-c2ccc(C(N)=O)c3[nH]c(-c4cccnc4)cc23)c1C` [A.1.36]: less than 100 nM.
Still for that read-out and setting: next, `C=CC(=O)Nc1cccc(-c2ccc(C(N)=O)c3[nH]c(-c4c(C)noc4C)cc23)c1C` [A.1.1]: 100 to 1000 nM.
On the same count and under the same terms, next, `C=CC(=O)Nc1cccc(-c2ccc(C(N)=O)c3[nH]c(-c4cnn(CC)c4)cc23)c1C` [A.1.6]: less than 100 nM; `Cc1c(-c2ccc(C(N)=O)c3[nH]c(-c4ccc(F)cc4)cc23)cccc1N1Cc2ccc(F)cc2C1=O` [A.9.6]: less than 100 nM; `C=CC(=O)Nc1cccc(-c2ccc(C(N)=O)c3[nH]c(-c4cccnc4F)cc23)c1C` [A.1.17]: less than 100 nM.
Turning to `C=CC(=O)Nc1cccc(-c2ccc(C(N)=O)c3[nH]c(-c4cccc(C(=O)N5CCN(C)CC5)c4)cc23)c1C` [A.1.31], the IC50 is less than 100 nM.
The same measure, in the same setting: next, `C=C(C)C(=O)Nc1c[nH]c2c(C(N)=O)ccc(-c3cccc(NC(=O)c4nccs4)c3C)c12` [D.3.4]: 1000 to 10000 nM; `C=CC(=O)Nc1cccc(-c2ccc(C(N)=O)c3[nH]c(-c4ccc(C)nc4)cc23)c1C` [A.1.24]: less than 100 nM.
The same measure, in the same setting: the same measure for `Cc1noc(C)c1-c1ccc(C(N)=O)c2[nH]c(-c3ccc(F)cc3)cc12` [A.9.3]: 100 to 1000 nM; for `COCCNC(=O)/C=C\C(=O)Nc1cccc(-c2ccc(C(N)=O)c3[nH]ccc23)c1` [D.9.1]: 100 to 1000 nM.
For the compound `C=CC(=O)Nc1cccc(-c2ccc(C(N)=O)c3[nH]c(-c4ccc(C(=O)N(C)C)cc4)cc23)c1C` [A.1.35], the IC50 is less than 100 nM.
Still for that read-out and setting: the same measure for `Cc1c(-c2ccc(C(N)=O)c3[nH]c(-c4cncnc4)cc23)cccc1-n1cnc2ccc(F)cc2c1=O` [A.13.2]: 100 to 1000 nM.
Same read-out and setting: the same measure for `CN(C)C(=O)/C=C/C(=O)Nc1cccc(-c2ccc(C(N)=O)c3[nH]ccc23)c1` [D.4.2]: 1000 to 10000 nM.
Still for that read-out and setting: the same measure for `C=CC(=O)Nc1cccc(-c2ccc(C(N)=O)c3[nH]c(-c4ccccc4OC)cc23)c1C` [A.1.43]: less than 100 nM; for `Cc1c(NC(=O)CCN2CCOCC2)cccc1-c1ccc(C(N)=O)c2[nH]ccc12` [D.8.13]: 1000 to 10000 nM; for `Cc1c(NC(=O)CCN2CCCC2)cccc1-c1ccc(C(N)=O)c2[nH]ccc12` [D.8.14]: 1000 to 10000 nM.
With `Cn1cc(-c2cc3c(-c4cccc(-n5ccc6cc(C7CC7)cc(F)c6c5=O)c4CO)ccc(C(N)=O)c3[nH]2)cn1` [A.15.1], the IC50 is less than 100 nM.
For `C/C=C/C(=O)Nc1c[nH]c2c(C(N)=O)ccc(-c3cccc(NC(=O)c4nccs4)c3C)c12` [D.3.3], the 50% inhibitory concentration (IC50) lay in the range of 1000 to 10000 nM.
Same read-out and setting: the same measure for `C=C(C)C(=O)NCc1ccccc1-c1cc2c(-c3cccc(NC(=O)c4nccs4)c3C)ccc(C(N)=O)c2[nH]1` [D.1.10]: 1000 to 10000 nM; for `C=CC(=O)Nc1cccc(-c2ccc(C(N)=O)c3[nH]c(-c4ccc(OC)nc4)cc23)c1C` [A.1.41]: less than 100 nM; for `Cn1cc(-c2cc3c(-c4cccc(NC(=O)c5nccs5)c4CO)ccc(C(N)=O)c3[nH]2)cn1` [M.1, N-(3-(7-carbamoyl-2-(1-methyl-1H-pyrazol-4-yl)-1H-indol-4-yl)-2-(hydroxymethyl)phenyl)thiazole-2-carboxamide]: less than 100 nM.
Same read-out and setting: the same measure for `C=CC(=O)Nc1cccc(-c2ccc(C(N)=O)c3[nH]c(-c4ccc(OC)cc4)cc23)c1C` [A.1.23]: less than 100 nM; for `Cc1c(NC(=O)c2nccs2)cccc1-c1ccc(C(N)=O)c2[nH]c(-c3ccccc3CNC(=O)CC#N)cc12` [D.1.3]: 100 to 1000 nM.
The same measure, in the same setting: the same measure for `C=CC(=O)Nc1cccc(-c2ccc(C(N)=O)c3[nH]c(-c4ccccc4F)cc23)c1C` [A.1.29]: less than 100 nM; for `Cc1ccc(-c2cc3c(-c4ccn[nH]4)ccc(C(N)=O)c3[nH]2)cc1` [A.8.1]: 100 to 1000 nM.
Take `CCNC(=O)/C=C\C(=O)Nc1cccc(-c2ccc(C(N)=O)c3[nH]ccc23)c1C` [D.8.15]: the IC50 was less than 100 nM.
For the compound `C/C(O)=C(/C#N)C(=O)Nc1cccc(-c2ccc(C(N)=O)c3[nH]ccc23)c1` [Example 7, (E)-4-(3-(2-Cyano-3-hydroxybut-2-enamido)phenyl)-1H -indole-7-carboxamide], the IC50 was 1000 to 10000 nM.
`Cc1c(-c2ccc(C(N)=O)c3[nH]c(-c4cnn(CC(C)(C)O)c4)cc23)cccc1-n1cnc2ccc(F)cc2c1=O` [A.14.1]: the IC50 is less than 100 nM.
As to `Cc1c(NC(=O)c2nccs2)cccc1-c1ccc(C(N)=O)c2[nH]c(-c3ccccc3CNC(=O)CCN3CCCCC3)cc12` [D.1.5], the IC50 is 1000 to 10000 nM.
Still for that read-out and setting: the same measure for `CC(=O)N1CC=C(c2cc3c(-c4cccc(NC(=O)c5ccc(C6CC6)cc5)c4C)ccc(C(N)=O)c3[nH]2)CC1` [A.3.6]: less than 100 nM; for `Cc1c(-c2ccc(C(N)=O)c3[nH]c(-c4cnn(C)c4)cc23)cccc1-n1cnc2ccc(F)cc2c1=O` [A.10.2]: less than 100 nM.
On the same count and under the same terms, the same measure for `C=CC(=O)N1CC(N(C)c2ccc(C(N)=O)c3[nH]ccc23)C1` [Example 24, 4-((1-Acryloylazetidin-3-yl)(methyl)amino)-1H-indole-7-carboxamide]: less than 100 nM.
